Source: ChEMBL document CHEMBL4152250, “Antibacterial and anti-TB tat-peptidomimetics with improved efficacy and half-life” (Eur J Med Chem, 2018)
Values after ≈ are worked out from the molar mass of the structure shown. Active and inactive are the calls of the source. The calls are words filed in the database; no cut-off is given here.

Experiments:
Escherichia coli [1] = assay: Antibacterial activity against Escherichia coli NCIM 2688 after 8 hrs by serial dilution method; assay type: functional, organism-based; settings: NCIM 2688, 8 h
Pseudomonas aeruginosa = assay: Antibacterial activity against Pseudomonas aeruginosa NCIM 2036 after 8 hrs by serial dilution method; assay type: functional, organism-based; settings: NCIM 2036, 8 h
Enterobacter sp. = assay: Antibacterial activity against Enterobacter sp. NCIM 5392 after 8 hrs by serial dilution method; assay type: functional, organism-based; settings: NCIM 5392, 8 h
Bacillus subtilis = assay: Antibacterial activity against Bacillus subtilis NCIM 2079 after 12 hrs by serial dilution method; assay type: functional, organism-based; settings: NCIM 2079, 12 h
Staphylococcus aureus [2] = assay: Antibacterial activity against Staphylococcus aureus NCIM 2010 after 12 hrs by serial dilution method; assay type: functional, organism-based; settings: NCIM 2010, 12 h
[3] = system: Staphylococcus epidermidis; assay: Antibacterial activity against Staphylococcus epidermidis NCIM 5270 after 12 hrs by serial dilution method; assay type: functional, organism-based; settings: NCIM 5270, 12 h
[4] = system: Mycobacterium tuberculosis; assay: Antitubercular activity against dormant stage of Mycobacterium tuberculosis H37Ra ATCC 25177 after 12 days by XRMA; assay type: functional, organism-based; settings: H37Ra ATCC 25177, 288 h
[5] = system: Mycobacterium tuberculosis; assay: Antitubercular activity against active stage of Mycobacterium tuberculosis H37Ra ATCC 25177 after 8 days by XRMA; assay type: functional, organism-based; settings: H37Ra ATCC 25177, 192 h
[6] = Cytotoxicity against human HeLa cells assessed as cell viability at 1 to 10 uM after 24 hrs by MTT assay relative to control; assay type: cell-based; settings: read-out: Activity
[7] = Drug degradation assessed as bovine pancreas chymotrypsin-mediated compound hydrolysis by measuring remaining compound levels at 10 mM measured at 0.5 hrs by RP-HPLC method; assay type: ADME, Bos taurus; settings: cattle, read-out: Stability
[8] = Drug degradation assessed as bovine pancreas chymotrypsin-mediated compound hydrolysis by measuring remaining compound levels at 10 mM measured at 1 hr by RP-HPLC method; assay type: ADME, Bos taurus; settings: cattle, read-out: Stability
[9] = Drug degradation assessed as bovine pancreas chymotrypsin-mediated compound hydrolysis by measuring remaining compound levels at 10 mM measured at 2 hrs by RP-HPLC method; assay type: ADME, Bos taurus; settings: cattle, read-out: Stability
[10] = Drug degradation assessed as bovine pancreas chymotrypsin-mediated compound hydrolysis by measuring remaining compound levels at 10 mM measured at 4 hrs by RP-HPLC method; assay type: ADME, Bos taurus; settings: cattle, read-out: Stability
[11] = Drug degradation assessed as bovine pancreas chymotrypsin-mediated compound hydrolysis by measuring remaining compound levels at 10 mM measured at 8 hrs by RP-HPLC method; assay type: ADME, Bos taurus; settings: cattle, read-out: Stability
[12] = Drug degradation assessed as bovine pancreas chymotrypsin-mediated compound hydrolysis by measuring remaining compound levels at 10 mM measured at 12 hrs by RP-HPLC method; assay type: ADME, Bos taurus; settings: cattle, read-out: Stability
[13] = Drug degradation assessed as bovine pancreas chymotrypsin-mediated compound hydrolysis by measuring remaining compound levels at 10 mM measured at 18 hrs by RP-HPLC method; assay type: ADME, Bos taurus; settings: cattle, read-out: Stability
[14] = Drug degradation assessed as bovine pancreas chymotrypsin-mediated compound hydrolysis by measuring remaining compound levels at 10 mM measured at 24 hrs by RP-HPLC method; assay type: ADME, Bos taurus; settings: cattle, read-out: Stability
[15] = Drug degradation assessed as bovine pancreas chymotrypsin-mediated compound hydrolysis by measuring compound half life at 10 mM by RP-HPLC method; assay type: ADME, Bos taurus; settings: cattle
[16] = Drug degradation assessed as pepsin (unknown origin)-mediated compound hydrolysis by measuring remaining compound levels at 0.5 hrs by RP-HPLC method; assay type: ADME; settings: human, read-out: Stability
[17] = Drug degradation assessed as pepsin (unknown origin)-mediated compound hydrolysis by measuring remaining compound levels at 1 hr by RP-HPLC method; assay type: ADME; settings: human, read-out: Stability
[18] = Drug degradation assessed as pepsin (unknown origin)-mediated compound hydrolysis by measuring remaining compound levels at 2 hrs by RP-HPLC method; assay type: ADME; settings: human, read-out: Stability
[19] = Drug degradation assessed as pepsin (unknown origin)-mediated compound hydrolysis by measuring remaining compound levels at 4 hrs by RP-HPLC method; assay type: ADME; settings: human, read-out: Stability
[20] = Drug degradation assessed as pepsin (unknown origin)-mediated compound hydrolysis by measuring remaining compound levels at 8 hrs by RP-HPLC method; assay type: ADME; settings: human, read-out: Stability
[21] = Drug degradation assessed as pepsin (unknown origin)-mediated compound hydrolysis by measuring remaining compound levels at 12 hrs by RP-HPLC method; assay type: ADME; settings: human, read-out: Stability
[22] = Drug degradation assessed as pepsin (unknown origin)-mediated compound hydrolysis by measuring remaining compound levels at 18 hrs by RP-HPLC method; assay type: ADME; settings: human, read-out: Stability
[23] = Drug degradation assessed as pepsin (unknown origin)-mediated compound hydrolysis by measuring remaining compound levels at 24 hrs by RP-HPLC method; assay type: ADME; settings: human, read-out: Stability
Staphylococcus aureus [24] = assay: Antibacterial activity against Staphylococcus aureus NCIM 2010 assessed as decrease in bacterial viability at 10 ug/ml after 4 hrs by SYTO9/propidium iodide staining-based fluorescence microscopic method; assay type: functional, organism-based
Staphylococcus aureus [25] = assay: Disruption of cell wall in Staphylococcus aureus NCIM 2010 at MIC after 60 mins by transmission electron microscopic method; assay type: functional, organism-based
Escherichia coli [26] = assay: Disruption of cell wall in Escherichia coli NCIM 2688 at MIC after 60 mins by transmission electron microscopic method; assay type: functional, organism-based
[27] = system: Mycobacterium tuberculosis; assay: Disruption of cell wall in dormant stage of Mycobacterium tuberculosis H37Ra ATCC 25177 at MIC after 60 mins by transmission electron microscopic method; assay type: functional, organism-based
[28] = system: Mycobacterium tuberculosis; assay: Disruption of cell wall in active stage of Mycobacterium tuberculosis H37Ra ATCC 25177 at MIC after 60 mins by transmission electron microscopic method; assay type: functional, organism-based
Erythrocyte = assay: Hemolytic activity in human RBC at 1 to 40 uM after 1 hr; assay type: ADME, cell-based

Row | SMILES | IC50 (Escherichia coli [1]) | MIC (Escherichia coli [1]) | IC50 (Pseudomonas aeruginosa) | MIC (Pseudomonas aeruginosa) | IC50 (Enterobacter sp.) | MIC (Enterobacter sp.) | IC50 (Bacillus subtilis) | MIC (Bacillus subtilis) | IC50 (Staphylococcus aureus [2]) | MIC (Staphylococcus aureus [2]) | IC50 [3] | MIC [3] | IC50 [4] | IC50 [5] | viability at 24 h, up to 10 µM [6] | remaining at 0.5 h, 10000 µM [7] | remaining at 1 h, 10000 µM [8] | remaining at 2 h, 10000 µM [9] | remaining at 4 h, 10000 µM [10] | remaining at 8 h, 10000 µM [11] | other results
1 | CC(=O)N[C@@H](Cc1ccccc1)C(=O)NCC(=O)N[C@@H](CCCNC(=N)N)C(=O)N[C@@H](CCCCN)C(=O)N[C@@H](CCCCN)C(=O)N[C@@H](CCCNC(=N)N)C(=O)N[C@@H](CCCNC(=N)N)C(=O)N[C@@H](CCC(N)=O)C(=O)N[C@@H](CCCNC(=N)N)C(=O)N[C@@H](CCCNC(=N)N)C(=O)N[C@@H](CCCNC(=N)N)C(N)=O | 10.1 nM | 6.27 µM (≈ 9.94 µg/mL) | 26.5 nM | 7.46 µM (≈ 11.8 µg/mL) | 24 nM | 21.6 µM (≈ 34.2 µg/mL) | 12 nM | 3.34 µM (≈ 5.29 µg/mL) | 11.3 nM | 9.91 µM (≈ 15.7 µg/mL) | 6.9 nM | 5.78 µM (≈ 9.16 µg/mL) | 40000 nM | > 60000 nM | ≥ 80% | 86.7% | 86% | 84.6% | 82.6% | 79.6% | remaining at 12 h, 10000 µM [12]: 78.2%; remaining at 18 h, 10000 µM [13]: 75.1%; remaining at 24 h, 10000 µM [14]: 15.9%; half-life at 10000 µM [15]: 4 h; remaining at 0.5 h [16]: 94.6%; remaining at 1 h [17]: 94.2%; remaining at 2 h [18]: 93.1%; remaining at 4 h [19]: 93%; remaining at 8 h [20]: 90.6%; remaining at 12 h [21]: 89%; remaining at 18 h [22]: 82.1%; remaining at 24 h [23]: 80.6%
2 | CC(=O)N[C@@H](Cc1ccccc1)C(=O)NCC(=O)N[C@H]1C[C@@H](C(=O)N[C@@H](CCCCN)C(=O)N[C@@H](CCCCN)C(=O)N[C@@H](CCCNC(=N)N)C(=O)N[C@H]2C[C@@H](C(=O)N[C@@H](CCC(N)=O)C(=O)N[C@H]3C[C@@H](C(=O)N[C@@H](CCCNC(=N)N)C(=O)N[C@H]4C[C@@H](C(=O)NCCC(N)=O)N(CCCNC(=N)N)C4)N(CCCNC(=N)N)C3)N(CCCNC(=N)N)C2)N(CCCNC(=N)N)C1 | 5.3 nM | 1.12 µM (≈ 2.1 µg/mL) | 4.2 nM | 0.61 µM (≈ 1.14 µg/mL) | 4.2 nM | 1.35 µM (≈ 2.53 µg/mL) | 3.7 nM | 0.71 µM (≈ 1.33 µg/mL) | 6.4 nM | 1.26 µM (≈ 2.36 µg/mL) | 4.2 nM | 1.12 µM (≈ 2.1 µg/mL) | 3700 nM | 6200 nM | ≥ 80% | 100% | 100% | 100% | 100% | 100% | MIC [4]: 36.3 µM (≈ 68.1 µg/mL); MIC [5]: 43.9 µM (≈ 82.4 µg/mL); Activity (Staphylococcus aureus [24]): Active; Activity (Staphylococcus aureus [25]): Active; Activity (Escherichia coli [26]): Active; Activity [27]: Active; Activity [28]: Active; Activity (Erythrocyte): Non-Toxic; remaining at 12 h, 10000 µM [12]: 100%; remaining at 18 h, 10000 µM [13]: 100%; remaining at 24 h, 10000 µM [14]: 100%; half-life at 10000 µM [15]: 16 h; remaining at 0.5 h [16]: 100%; remaining at 1 h [17]: 100%; remaining at 2 h [18]: 100%; remaining at 4 h [19]: 100%; remaining at 8 h [20]: 100%; remaining at 12 h [21]: 100%; remaining at 18 h [22]: 100%; remaining at 24 h [23]: 100%
